Numbered stars: 1 amine (or outer) side, 2 acyl side, 3 side chain; on linkers, the order of the positions; unused ones are H or OH. Bridge positions count the residues as written; N and C are the ends. Square brackets hold non-standard residues; d marks the D form. Peptide text beside a SMILES is read from it. * marks the point of attachment. Adda = CO[C@@H](Cc1ccccc1)[C@@H](C)/C=C(C)/C=C/[C@H](N[*:1])[C@H](C)C(=O)[*:2]; dAsp(3S-Me) = C[C@H](C(=O)[*:3])[C@@H](N[*:1])C(=O)[*:2]; d(γGlu) = O=C(O)[C@@H](CCC(=O)[*:2])N[*:1]; NMeDha = C=C(NC)C(=O)O; Propargyl = C#CC*
Columns and labels:
[1] = Substrate activity at OATP1B1 (unknown origin) expressed in HEK293 cells assessed as cytotoxicity incubated for 48 hrs by sulforhodamine B assay
[2] = Substrate activity at OATP1B3 (unknown origin) expressed in HEK293 cells assessed as cytotoxicity incubated for 48 hrs by sulforhodamine B assay

Compound	EC50 [1]	EC50 [2]
C=C1C(=O)N[C@H](C)C(=O)N[C@@H](Cc2ccc(OCc3cn(-c4cc5ccc(O)cc5oc4=O)nn3)cc2)C(=O)N[C@@H](C(=O)O)[C@H](C)C(=O)N[C@@H](CCCNC(=N)N)C(=O)N[C@@H](/C=C/C(C)=C/[C@H](C)[C@H](Cc2ccccc2)OC)[C@H](C)C(=O)N[C@@H](C(=O)O)CCC(=O)N1C	1.7 nM	1.4 nM
C=C1C(=O)N[C@H](C)C(=O)N[C@@H](Cc2ccc(O)cc2)C(=O)N[C@@H](C(=O)O)[C@H](C)C(=O)N[C@@H](CCCNC(=N)N)C(=O)N[C@@H](/C=C/C(C)=C/[C@H](C)[C@H](Cc2ccccc2)OC)[C@H](C)C(=O)N[C@@H](C(=O)O)CCC(=O)N1C (R[Adda][d(γGlu)][NMeDha][dA]Y[dAsp(3S-Me)]-OH; lactam N-7)	4.5 nM	3 nM
C#CCOc1ccc(C[C@@H]2NC(=O)[C@@H](C)NC(=O)C(=C)N(C)C(=O)CC[C@H](C(=O)O)NC(=O)[C@@H](C)[C@H](/C=C/C(C)=C/[C@H](C)[C@H](Cc3ccccc3)OC)NC(=O)[C@H](CCCNC(=N)N)NC(=O)[C@@H](C)[C@H](C(=O)O)NC2=O)cc1 (R[Adda][d(γGlu)][NMeDha][dA]Y(Propargyl)[dAsp(3S-Me)]-OH; lactam N-7)	1.1 nM	2.4 nM
